Where two headings read alike, the source gives them in different places.
How the values were obtained:
Recombinant human BACE-1 = Recombinant human BACE-1 (Homo sapiens (Human), UniProt P56817); test: Measurement of BACE1 inhibitory activity; type: biochemical; details: Recombinant human BACE-1 7.4 nM, substrate peptide 18 nM, pH 5.0, 3 hours at 30° C.; read-out: IC50 (BACE1 enzyme activity)
Method: First, 48.5 μl portions of a solution of substrate peptide (Biotin-XSEVNLDAEFRHDSGC-Eu: X=ε-amino-n-capronic acid, Eu=Europium cryptate) were put into respective wells of a 96-well half area microplate (black microplate, Costar). Then, 0.5 μl of a test compound (DMSO (dimethyl sulfoxide) solution) and 1 μl of Recombinant human BACE-1 (R&D systems) were added to each of the wells, and they were reacted for 3 hours at 30° C. […] The final concentration of the substrate peptide was set to 18 nM, and the final concentration of Recombinant human BACE-1 was set to 7.4 nM. The reaction buffer used was a sodium acetate buffer (50 mM sodium acetate, pH 5.0, 0.008% Triton X-100). After the reaction finished, 50 μl portions of a 8.0 μg/ml solution of Streptavidin-XL665 (CIS bio international) in a phosphate buffer (150 mM K2HPO4—KH2PO4, pH 7.0, 0.008% Triton X-100, 0.8 M KF) were added to the respective wells, and the plate was left standing for 1 hour at 30° C. Thereafter, the fluorescence intensity (excitation wavelength: 320 nm, measurement wavelength: 620 nm and 665 nm) was measured with a Wallac 1420 multilabel counter (Perkin Elmer life sciences). The enzyme activity was determined from the count rate at each measurement wavelength (10000× Count 665/Count 620), and the amount needed to inhibit the enzyme activity by 50% (IC50) was calculated.

[1] = tested on: Neuroblastoma SH-SY5Y cells (SH/APPwt) with human wild-type β-APP excessively expressed; test: Measurement of β-amyloid (Aβ) production inhibitory effect in cell; type: cell-based; details: 24 hours incubation, Amyloid-β 1-40 HTRF
Method: Neuroblastoma SH-SY5Y cells (SH/APPwt) with human wild-type β-APP excessively expressed therein were prepared at 8×10^5 cells/mL, and 150 μl portions thereof were inoculated into respective wells of a 96-well culture plate (Falcon). The cells were cultured for 2 hours at 37° C. in a 5% gaseous carbon dioxide incubator. […] Namely, the final DMSO concentration was 1%, and the amount of the cell culture was 200 μl. After the incubation was performed for 24 hours from the addition of the test compound, 100 μl of the culture supernatant was collected from each fraction. The amount of the Aβ in each fraction was measured. The Aβ amount was measured as follows. 10 μl of a homogeneous time resolved fluorescence (HTRF) measurement reagent (Amyloid-β 1-40 peptide; IBA Molecular Holding, S.A.) and 10 μl of the culture supernatant were put into a 384-well half area microplate (black microplate, Costar) and mixed with each other, and then left standing overnight at 4° C. while the light was shielded. Then, the fluorescence intensity (excitation wavelength: 337 nm, measurement wavelength: 620 nm and 665 nm) was measured with a Wallac 1420 multilabel counter (Perkin Elmer life sciences).

Metabolic stability test = type: in vitro ADME; details: human liver microsomes 0.5 mg protein/mL, NADPH, 30 minutes at 37° C., compound concentration 2 μM
Method: The target compound was reacted with commercially available pooled human liver microsomes for a predetermined time period. The residual rate was calculated by comparing the reacted sample and unreacted sample, and thus the degree of metabolism in liver was evaluated.
In 0.2 mL of a buffer (50 mmol/L tris-HCl pH 7.4, 150 mmol/L potassium chloride, 10 mmol/L magnesium chloride) containing human liver microsomes 0.5 mg protein/mL, reaction was carried out in the presence of 1 mmol/L NADPH for 0 minute or 30 minutes at 37° C. (oxidative reaction). After the reaction, 50 μL of the reaction solution was added to and mixed with 100 μL of a solution of methanol/acetonitrile=1/1 (v/v), and the mixture was centrifuged for 15 minutes at 3000 rpm. The test compound in the centrifuged supernatant was quantified by LC/MS/MS, and the residual amount of the test compound after the reaction was calculated based on the compound amount at 0-minute reaction set as 100%.
(Results) The residual rate at a compound concentration of 2 μM is shown below.

CYP3A4 [2] = target: T1, CYP3A4 (Homo sapiens (Human), UniProt P08684); test: CYP3A4 fluorescent MBI test; type: in vitro ADME; details: E. coli-expressing CYP3A4, 7-BFC substrate, pre-reaction 0 or 30 minutes
Method: The CYP3A4 fluorescent MBI test is a test to examine enhancement of CYP3A4 inhibition by metabolic reaction of the compound. Here, E. coli-expressing CYP3A4 was used as an enzyme, and a reaction wherein 7-benzyloxy trifluoromethylcumarin (7-BFC) was debenzylated by the CYP3A4 enzyme into a fluorescent metabolite 7-hydroxytrifluoromethylcumarin (HFC) was employed as an indicator reaction. The reaction conditions were as follows.
Substrate: 5.6 μmol/L 7-BFC
Pre-reaction time: 0 or 30 minutes
Reaction time: 15 minutes
Reaction temperature: 25° C. (room temperature)
CYP3A4 content (E. coli-expressing enzyme): 62.5 pmol/mL at pre-reaction, […] at reaction (10-fold diluted) […]
The enzyme and a test compound solution were added to a K-Pi buffer (pH 7.4) in the aforementioned amounts for the pre-reaction so that a pre-reaction solution was prepared, and this solution was put into a 96-well microplate. […] With respect to each of the microplates on which the indicator reaction was performed, the fluorescence value of the metabolite 7-HFC was measured with a fluorescence plate reader (Ex=420 nm, Em=535 nm). […] The remaining activity (%) at each concentration after adding the test compound solution was calculated, and the IC50 value was calculated from the concentration and inhibition percentage by inverse estimation with the logistic model. […]

CYP1A2 = CYP1A2 (Homo sapiens (Human), UniProt P05177); test: CYP inhibition test (CYP1A2); type: in vitro ADME
Excerpt: (§1) Using commercially available pooled human liver microsomes and employing typical substrate metabolic reactions of 5 major species of human CYP enzymes (CYP1A2, 2C9, 2C19, 2D6, 3A4), namely, O-deethylation of 7-ethoxyresorufin (CYP1A2), methyl-hydroxylation of tolbutamide (CYP2C9), 4′-hydroxylation of mephenyloin (CYP2C19), O-demethylation of dextromethorphan (CYP2D6), and hydroxylation of terfenadine (CYP3A4), as indicator reactions, the degree of inhibition of each metabolite production by each test compound was evaluated.
(§2) The reaction conditions were as follows:
(§3) Substrate: 0.5 μmol/L of ethoxyresorufin (CYP1A2), 100 μmol/L of tolbutamide (CYP2C9), 50 μmol/L of S-mephenyloin (CYP2C19), 5 μmol/L of dextromethorphan (CYP2D6), 1 μmol/L of terfenadine (CYP3A4); […]
(§4) As a reaction solution, the respective five substrates, human liver microsomes, and test compound in the aforementioned amounts were added to a 50 mM Hepes buffer in a 96-well microplate. […] Centrifugation was performed for 15 minutes at 3000 rpm, and each metabolite in the centrifuged supernatant was quantified. Namely, resorufin (CYP1A2 metabolite) was quantified with a fluorescence multilabel counter, and hydroxylated tolbutamide (CYP2C9 metabolite), 4′-hydroxylated mephenyloin (CYP2C19 metabolite), dextrorphan (CYP2D6 metabolite) and alcoholized terfenadine (CYP3A4 metabolite) were quantified with LC/MS/MS. […]

CYP2C9 = CYP2C9 (Homo sapiens (Human), UniProt P11712); test: CYP inhibition test (CYP2C9); type: in vitro ADME; details: pooled human liver microsomes, methyl-hydroxylation of tolbutamide
Excerpt: as §1, §2, §3, §4

CYP2C19 = CYP2C19 (Homo sapiens (Human), UniProt P33261); test: CYP inhibition test (CYP2C19); type: in vitro ADME; details: pooled human liver microsomes, 4′-hydroxylation of mephenyloin
Excerpt: as §1, §2, §3, §4

CYP2D6 = CYP2D6 (Homo sapiens (Human), UniProt P10635); test: CYP inhibition test (CYP2D6); type: in vitro ADME; details: pooled human liver microsomes, O-demethylation of dextromethorphan
Excerpt: as §1, §2, §3, §4

CYP3A4 [3] = target: T1, CYP3A4; test: CYP inhibition test (CYP3A4); type: in vitro ADME; details: pooled human liver microsomes, hydroxylation of terfenadine
Excerpt: as §1, §2, §3, §4

Solubility test = type: physicochemical; details: artificial intestinal juice (phosphate buffer) with 1% DMSO, fassgf or other biorelevant, kinetic from dmso stock, artificial intestinal juice pH 6.8, 16 hours at 25° C.
Method: The solubility of each compound was determined under 1% DMSO addition conditions. A 10 mM solution of the compound was prepared with DMSO, and 6 μL of the compound solution was added to 594 μL of an artificial intestinal juice (water and 118 mL of 0.2 mol/L NaOH reagent were added to 250 mL of 0.2 mol/L potassium dihydrogen phosphate reagent to reach 1000 mL) with a pH of 6.8. The mixture was left standing for 16 hours at 25° C., and the mixture was vacuum-filtered. The filtrate was two-fold diluted with methanol/water=1/1, and the compound concentration in the filtrate was measured with HPLC or LC/MS/MS by the absolute calibration method.

Recombinant human BACE-1, sequence (P56817 46-501): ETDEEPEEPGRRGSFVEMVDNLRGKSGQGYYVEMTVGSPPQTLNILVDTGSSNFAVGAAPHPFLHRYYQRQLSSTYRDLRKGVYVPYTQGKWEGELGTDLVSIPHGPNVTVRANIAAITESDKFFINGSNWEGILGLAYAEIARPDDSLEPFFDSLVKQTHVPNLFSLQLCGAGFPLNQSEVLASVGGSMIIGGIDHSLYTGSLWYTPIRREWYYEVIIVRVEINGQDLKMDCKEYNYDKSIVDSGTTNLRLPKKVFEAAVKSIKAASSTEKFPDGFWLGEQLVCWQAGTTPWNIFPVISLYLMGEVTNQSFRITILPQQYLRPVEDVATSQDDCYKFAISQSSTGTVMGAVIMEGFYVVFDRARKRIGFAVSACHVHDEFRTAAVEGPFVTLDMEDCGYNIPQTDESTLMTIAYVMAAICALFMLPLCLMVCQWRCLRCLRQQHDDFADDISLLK
T1 sequence (P08684 whole entry): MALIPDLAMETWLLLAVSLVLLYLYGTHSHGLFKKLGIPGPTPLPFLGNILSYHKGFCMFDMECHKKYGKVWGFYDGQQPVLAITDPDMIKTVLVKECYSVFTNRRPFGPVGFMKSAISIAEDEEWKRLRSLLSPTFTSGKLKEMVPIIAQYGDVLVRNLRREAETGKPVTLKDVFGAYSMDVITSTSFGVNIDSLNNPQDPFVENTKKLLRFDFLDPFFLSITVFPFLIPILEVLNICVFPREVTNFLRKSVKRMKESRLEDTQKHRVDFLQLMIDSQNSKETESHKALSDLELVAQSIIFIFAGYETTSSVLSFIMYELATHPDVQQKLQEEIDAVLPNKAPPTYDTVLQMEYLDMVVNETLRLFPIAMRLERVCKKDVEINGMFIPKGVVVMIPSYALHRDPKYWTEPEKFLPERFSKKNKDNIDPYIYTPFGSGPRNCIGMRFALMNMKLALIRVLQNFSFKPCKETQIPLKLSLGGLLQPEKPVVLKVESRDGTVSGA
CYP2C19, sequence (P33261 whole entry): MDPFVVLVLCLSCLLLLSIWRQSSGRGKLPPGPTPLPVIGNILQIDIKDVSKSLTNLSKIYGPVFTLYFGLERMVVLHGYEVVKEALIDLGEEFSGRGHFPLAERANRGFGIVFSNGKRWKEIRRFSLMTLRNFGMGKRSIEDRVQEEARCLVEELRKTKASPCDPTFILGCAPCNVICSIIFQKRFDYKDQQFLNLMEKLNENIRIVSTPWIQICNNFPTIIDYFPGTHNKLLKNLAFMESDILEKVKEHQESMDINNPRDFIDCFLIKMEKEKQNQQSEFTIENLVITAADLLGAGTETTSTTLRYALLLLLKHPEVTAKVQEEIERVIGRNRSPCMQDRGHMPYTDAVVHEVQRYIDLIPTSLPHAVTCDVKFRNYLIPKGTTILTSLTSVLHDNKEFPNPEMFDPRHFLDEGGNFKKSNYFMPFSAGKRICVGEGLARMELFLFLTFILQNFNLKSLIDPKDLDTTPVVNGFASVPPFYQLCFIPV
CYP1A2, sequence (P05177 whole entry): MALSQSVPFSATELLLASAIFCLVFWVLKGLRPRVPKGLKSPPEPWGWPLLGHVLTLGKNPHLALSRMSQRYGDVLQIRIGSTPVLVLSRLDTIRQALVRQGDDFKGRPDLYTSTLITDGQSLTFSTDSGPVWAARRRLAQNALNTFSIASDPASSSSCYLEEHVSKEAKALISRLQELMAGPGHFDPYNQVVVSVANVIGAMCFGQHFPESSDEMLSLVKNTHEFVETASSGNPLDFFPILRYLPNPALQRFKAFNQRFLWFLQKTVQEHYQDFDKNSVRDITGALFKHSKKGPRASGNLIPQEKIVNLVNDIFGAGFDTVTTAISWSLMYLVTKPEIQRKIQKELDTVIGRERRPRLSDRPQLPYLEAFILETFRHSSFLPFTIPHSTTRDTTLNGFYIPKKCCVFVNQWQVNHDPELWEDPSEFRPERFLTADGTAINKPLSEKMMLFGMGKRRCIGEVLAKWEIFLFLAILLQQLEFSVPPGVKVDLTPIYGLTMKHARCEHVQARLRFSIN
CYP2D6, sequence (P10635 whole entry): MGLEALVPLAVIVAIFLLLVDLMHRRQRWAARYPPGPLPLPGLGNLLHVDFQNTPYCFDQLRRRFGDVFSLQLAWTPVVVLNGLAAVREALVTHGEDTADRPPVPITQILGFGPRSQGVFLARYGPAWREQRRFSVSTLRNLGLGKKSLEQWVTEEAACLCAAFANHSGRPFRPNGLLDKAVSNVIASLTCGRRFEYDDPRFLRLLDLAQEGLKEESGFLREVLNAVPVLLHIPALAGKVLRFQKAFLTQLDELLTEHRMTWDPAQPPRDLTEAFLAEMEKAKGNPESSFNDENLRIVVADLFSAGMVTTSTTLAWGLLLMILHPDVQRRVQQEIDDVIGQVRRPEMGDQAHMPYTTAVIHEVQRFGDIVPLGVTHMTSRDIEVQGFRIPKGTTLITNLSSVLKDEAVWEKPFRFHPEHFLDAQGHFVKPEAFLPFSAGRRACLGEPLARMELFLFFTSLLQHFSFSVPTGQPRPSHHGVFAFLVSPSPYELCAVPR
CYP2C9, sequence (P11712 whole entry): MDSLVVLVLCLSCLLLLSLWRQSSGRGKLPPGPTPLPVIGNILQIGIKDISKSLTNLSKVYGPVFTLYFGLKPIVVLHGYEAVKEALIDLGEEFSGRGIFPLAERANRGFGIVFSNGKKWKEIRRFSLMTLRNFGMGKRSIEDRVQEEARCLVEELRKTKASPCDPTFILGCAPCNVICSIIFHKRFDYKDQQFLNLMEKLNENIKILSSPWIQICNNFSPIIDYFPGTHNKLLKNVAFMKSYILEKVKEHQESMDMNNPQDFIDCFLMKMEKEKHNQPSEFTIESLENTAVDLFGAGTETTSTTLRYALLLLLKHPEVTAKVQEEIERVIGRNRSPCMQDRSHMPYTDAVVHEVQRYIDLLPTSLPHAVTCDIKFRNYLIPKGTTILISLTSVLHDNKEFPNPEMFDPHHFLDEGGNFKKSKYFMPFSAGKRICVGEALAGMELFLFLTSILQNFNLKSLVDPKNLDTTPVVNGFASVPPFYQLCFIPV

Compound	IC50 (Recombinant human BACE-1) [nM]	IC50 [1] [nM]	further results
CN1C(=O)CC(C)(c2cccc(NC(=O)c3cnc(Cl)cn3)c2)N=C1N (stereo not shown) [Compound 34]	37	76.2	
C#CCOc1cnc(C(=O)Nc2cccc(C3(C)CC(=O)N(C)C(N)=N3)c2)cn1 (stereo not shown) [Compound 43]	56	28.6	IC50 difference without vs with pre-reaction (CYP3A4 [2]): ≤ 3000 nM
CC#CCOc1cnc(C(=O)Nc2cccc(C3(C)CC(=O)N(C)C(N)=N3)c2)cn1 (stereo not shown) [Compound 44]	12	0.7	IC50 (CYP1A2): > 20000 nM; IC50 (CYP2C9): > 20000 nM; IC50 (CYP2C19): > 20000 nM; IC50 (CYP2D6): > 20000 nM; IC50 (CYP3A4 [3]): > 20000 nM
COc1cnc(C(=O)Nc2cccc(CNc3cccnc3N)c2)cn1 [Compound 473]	1980	479	IC50 (CYP1A2; pooled human liver microsomes, O-deethylation of 7-ethoxyresorufin, read-out: IC50 CYP1A2 inhibition): > 20000 nM; IC50 (CYP2C9): > 20000 nM; IC50 (CYP2C19): > 20000 nM; IC50 (CYP2D6): > 20000 nM; IC50 (CYP3A4 [3]): > 20000 nM; solubility at 16 h (Solubility test): > 50 µM
C[C@@H](NC(=O)c1cc(C(=O)N[C@@H](Cc2ccccc2)[C@H](O)CNC2CC2)cc(N(C)S(C)(=O)=O)c1)c1ccccc1 [Reference Compound, reference compound]		36.8	

Continued, in another order:

IC50 (Recombinant human BACE-1) [nM]	IC50 [1] [nM]	Compound	further results
42	6.6	COc1cnc(C(=O)Nc2cccc(C3(C)CC(=O)N(C)C(N)=N3)c2)cn1 (stereo not shown) [Compound 35]	residual rate (Metabolic stability test): 99.5%
3180	811	COCCOc1cnc(C(=O)Nc2cccc(CNc3cccnc3N)c2)cn1 [Compound 478]	solubility at 16 h (Solubility test): > 50 µM
180	76.8	C#CCOc1cnc(C(=O)Nc2cccc(CNc3cccnc3N)c2)cn1 [Compound 481]	
73	43.8	CC#CCOc1cnc(C(=O)Nc2cccc(CNc3cccnc3N)c2)cn1 [Compound 482]	

Reference: patent US8703785B2, “2-aminopyrimidin-4-one and 2-aminopyridine derivatives both having BACE1-inhibiting activity” (Shionogi & Co., Ltd., priority 2008, dated 2014)
